Experimental findings from US20140212502A1, “NANO- AND MICRO-BUBBLES WITH ULTRASOUND-TRIGGERED RELEASE AND IMAGING FUNCTIONALITIES” (NATIONAL YANG-MING UNIVERSITY, priority 2013, published 2014) are described below.

In data set [1] the test system is breast tumor cells (MDA-MB-231). Nature of the data set: In vitro cytotoxicity, cell viability by MTT assay. The following applies: with sonication for 20 min, then 24 hr culture; 75 μL NB suspension or CPT 1.3 μg/mL. The format is cell-based. How it is done: FIG. 6 is a diagram showing the cell viability of breast tumor cells (MDA-MB-231) cultured under different conditions. In FIG. 6(a), the control group was performed on the cells cultured without adding the model drug (CPT) and performing sonication. In FIG. 6(b), cells were sonicated for 20 min. In FIG. 6(c), cells were cultured with the medium containing 75 μL of CPT-loaded CHC/SPIO NB suspension without sonication for 20 min. In FIG. 6(d), cells were cultured with the medium containing 75 μL of CPT-loaded CHC/SPIO NB suspension with sonication for 20 min. In FIG. 6(e), cells were cultured with CPT-containing medium (CPT/medium concentration: 1.3 μg/mL) under sonication for 20 min. […] After above treatments, the cell mediums were removed and the cells were washed with PBS. Then, fresh medium was added and further cultured for 24 hr. The cell viability was measured by MTT assay.
Thus, CPT molecules could efficiently access tumor cells. Moreover, the amphiphilic CHC molecules from ruptured bubbles also might be helpful to increase transmembrane permeation.
A general note: Tetrazolium assays rely on reduction of a dye to a coloured formazan, in cell work by metabolically active cells.

Data set [2] is described as follows: Release test with and without sonication, confocal microscope observation of leakage and dispersion. Particulars: sonication 1 MHz, 1 W/cm^2, duty ratio 20%, 20 min. Type of data set: physicochemical. How it is done:
FIG. 5 is a diagram showing the confocal microscope observation for CPT-loaded CHC/SPIO NBs (FIG. 5(a)) and FITC-loaded CHC/SPIO NBs (FIG. 5(b), indicated by arrows). […] FIGS. 5(d) and (e) show the confocal microscope observation for CPT-loaded CHC/SPIO NBs after the release test without sonication and with sonication (ultrasonic frequency: 1 MHz, power density: 1 W/cm^2, duty ratio: 20%) for 20 min, respectively. […] Scale bar 5 μm.
The confocal photographs of the as-received CHC/SPIO MBs loaded with hydrophobic agent (CPT, blue fluorescence) and hydrophilic agent (FITC, green fluorescence) are shown in FIGS. 5(a) and 5(b), respectively. […] This implies that CHC/SPIO MBs can carry both hydrophobic and hydrophilic agents, and the encapsulation ability of CHC/SPIO MBs for CPT (a hydrophobic agent) was better than that for FITC (a hydrophilic agent). […] This was not observed for the CPT-containing medium (without CHC) under the same sonication for 20 min.

In the case of `CC[C@@]1(O)C(=O)OCc2c1cc1n(c2=O)Cc2cc3ccccc3nc2-1` [CPT, camptothecin], in data set [1], the “cytotoxicity / cell viability” value is listed as “higher viability than those treated with CPT-loaded CHC/SPIO NBs under sonication”. Moreover, the “dispersion of CPT in hydrophilic medium” value in data set [2] is “not well-dispersed under sonication”.
